Source: patent publication US9340590B2 (priority 2011, dated 2016)
Read-outs that look alike come from different tables or passages of the source. Positions of bridges follow the written chain, without caps; N, C: chain ends. Residues, ends and D or L forms follow the SMILES beside them.

How the values were obtained:
Assay in all cases: cell-based
hNav1.7 = hNav1.7 (Homo sapiens, UniProt Q15858); format: cell-based; settings: IonWorks Quattro, read-out: IWQ Use Nav1.7
hNav1.5 = hNav1.5 (Homo sapiens, UniProt Q14524)
hNav1.3 = hNav1.3 (Homo sapiens, UniProt Q9NY46); settings: IonWorks Quattro, read-out: IWQ Use Nav1.3
hNav1.3, sequence (Q9NY46 whole entry, looked up): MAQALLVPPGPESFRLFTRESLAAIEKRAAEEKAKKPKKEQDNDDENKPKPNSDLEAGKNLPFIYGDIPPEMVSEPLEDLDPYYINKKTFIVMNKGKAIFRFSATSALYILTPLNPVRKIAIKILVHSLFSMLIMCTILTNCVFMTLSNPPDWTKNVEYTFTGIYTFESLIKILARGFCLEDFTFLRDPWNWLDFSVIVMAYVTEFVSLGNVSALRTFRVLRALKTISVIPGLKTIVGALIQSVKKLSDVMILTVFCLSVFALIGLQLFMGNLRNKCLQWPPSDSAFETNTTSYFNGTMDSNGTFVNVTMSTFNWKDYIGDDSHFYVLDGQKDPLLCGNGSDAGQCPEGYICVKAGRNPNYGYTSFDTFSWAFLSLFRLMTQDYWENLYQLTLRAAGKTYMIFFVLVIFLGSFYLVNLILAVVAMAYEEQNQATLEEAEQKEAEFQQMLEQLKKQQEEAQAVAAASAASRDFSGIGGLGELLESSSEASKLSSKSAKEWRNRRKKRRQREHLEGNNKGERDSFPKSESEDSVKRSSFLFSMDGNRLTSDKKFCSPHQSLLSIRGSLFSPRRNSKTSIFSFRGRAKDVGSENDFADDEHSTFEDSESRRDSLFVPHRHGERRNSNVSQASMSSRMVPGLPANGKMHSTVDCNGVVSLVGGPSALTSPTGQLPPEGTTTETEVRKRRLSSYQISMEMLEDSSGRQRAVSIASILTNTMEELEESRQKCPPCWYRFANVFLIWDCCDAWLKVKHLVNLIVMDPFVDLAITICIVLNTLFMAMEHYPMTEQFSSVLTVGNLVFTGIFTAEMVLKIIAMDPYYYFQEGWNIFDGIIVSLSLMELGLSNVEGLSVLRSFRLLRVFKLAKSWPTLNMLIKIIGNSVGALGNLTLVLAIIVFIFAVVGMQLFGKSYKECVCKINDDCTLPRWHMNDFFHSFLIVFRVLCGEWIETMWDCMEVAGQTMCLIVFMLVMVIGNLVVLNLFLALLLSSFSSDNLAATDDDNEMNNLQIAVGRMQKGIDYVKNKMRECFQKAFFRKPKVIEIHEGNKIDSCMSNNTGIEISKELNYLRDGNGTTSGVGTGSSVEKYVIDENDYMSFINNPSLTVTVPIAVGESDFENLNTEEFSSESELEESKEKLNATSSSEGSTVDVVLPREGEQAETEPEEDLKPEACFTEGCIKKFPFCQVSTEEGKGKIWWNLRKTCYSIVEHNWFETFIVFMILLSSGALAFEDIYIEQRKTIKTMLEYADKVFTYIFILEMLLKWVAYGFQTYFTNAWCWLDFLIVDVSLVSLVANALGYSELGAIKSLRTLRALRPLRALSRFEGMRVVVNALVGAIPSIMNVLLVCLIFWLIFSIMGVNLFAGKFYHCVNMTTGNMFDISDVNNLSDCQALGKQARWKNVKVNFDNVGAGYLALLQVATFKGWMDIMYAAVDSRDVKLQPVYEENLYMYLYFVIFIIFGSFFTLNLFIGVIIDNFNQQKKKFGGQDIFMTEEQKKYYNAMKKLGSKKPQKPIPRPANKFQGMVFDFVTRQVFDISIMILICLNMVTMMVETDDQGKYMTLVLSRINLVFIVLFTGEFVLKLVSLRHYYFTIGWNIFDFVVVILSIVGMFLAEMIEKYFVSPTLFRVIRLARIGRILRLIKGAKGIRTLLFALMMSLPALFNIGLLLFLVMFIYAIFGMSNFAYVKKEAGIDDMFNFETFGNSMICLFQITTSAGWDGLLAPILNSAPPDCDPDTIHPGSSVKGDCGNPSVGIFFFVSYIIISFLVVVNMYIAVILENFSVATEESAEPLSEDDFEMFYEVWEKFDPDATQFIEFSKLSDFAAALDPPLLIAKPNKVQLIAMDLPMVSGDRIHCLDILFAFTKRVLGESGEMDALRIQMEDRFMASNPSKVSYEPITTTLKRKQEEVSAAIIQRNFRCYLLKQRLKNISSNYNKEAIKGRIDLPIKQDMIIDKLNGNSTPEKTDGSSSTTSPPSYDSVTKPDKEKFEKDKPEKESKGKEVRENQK

[1] = clamped to −110 mV, depolarized to −10 mV, 5 min after compound, n=2
[2] = IonWorks Quattro, clamped to −110 mV, depolarized to −10 mV, 5 min after compound, n=2, read-out: IWQ Use Nav1.5

hNav1.7, sequence (Q15858 whole entry, looked up): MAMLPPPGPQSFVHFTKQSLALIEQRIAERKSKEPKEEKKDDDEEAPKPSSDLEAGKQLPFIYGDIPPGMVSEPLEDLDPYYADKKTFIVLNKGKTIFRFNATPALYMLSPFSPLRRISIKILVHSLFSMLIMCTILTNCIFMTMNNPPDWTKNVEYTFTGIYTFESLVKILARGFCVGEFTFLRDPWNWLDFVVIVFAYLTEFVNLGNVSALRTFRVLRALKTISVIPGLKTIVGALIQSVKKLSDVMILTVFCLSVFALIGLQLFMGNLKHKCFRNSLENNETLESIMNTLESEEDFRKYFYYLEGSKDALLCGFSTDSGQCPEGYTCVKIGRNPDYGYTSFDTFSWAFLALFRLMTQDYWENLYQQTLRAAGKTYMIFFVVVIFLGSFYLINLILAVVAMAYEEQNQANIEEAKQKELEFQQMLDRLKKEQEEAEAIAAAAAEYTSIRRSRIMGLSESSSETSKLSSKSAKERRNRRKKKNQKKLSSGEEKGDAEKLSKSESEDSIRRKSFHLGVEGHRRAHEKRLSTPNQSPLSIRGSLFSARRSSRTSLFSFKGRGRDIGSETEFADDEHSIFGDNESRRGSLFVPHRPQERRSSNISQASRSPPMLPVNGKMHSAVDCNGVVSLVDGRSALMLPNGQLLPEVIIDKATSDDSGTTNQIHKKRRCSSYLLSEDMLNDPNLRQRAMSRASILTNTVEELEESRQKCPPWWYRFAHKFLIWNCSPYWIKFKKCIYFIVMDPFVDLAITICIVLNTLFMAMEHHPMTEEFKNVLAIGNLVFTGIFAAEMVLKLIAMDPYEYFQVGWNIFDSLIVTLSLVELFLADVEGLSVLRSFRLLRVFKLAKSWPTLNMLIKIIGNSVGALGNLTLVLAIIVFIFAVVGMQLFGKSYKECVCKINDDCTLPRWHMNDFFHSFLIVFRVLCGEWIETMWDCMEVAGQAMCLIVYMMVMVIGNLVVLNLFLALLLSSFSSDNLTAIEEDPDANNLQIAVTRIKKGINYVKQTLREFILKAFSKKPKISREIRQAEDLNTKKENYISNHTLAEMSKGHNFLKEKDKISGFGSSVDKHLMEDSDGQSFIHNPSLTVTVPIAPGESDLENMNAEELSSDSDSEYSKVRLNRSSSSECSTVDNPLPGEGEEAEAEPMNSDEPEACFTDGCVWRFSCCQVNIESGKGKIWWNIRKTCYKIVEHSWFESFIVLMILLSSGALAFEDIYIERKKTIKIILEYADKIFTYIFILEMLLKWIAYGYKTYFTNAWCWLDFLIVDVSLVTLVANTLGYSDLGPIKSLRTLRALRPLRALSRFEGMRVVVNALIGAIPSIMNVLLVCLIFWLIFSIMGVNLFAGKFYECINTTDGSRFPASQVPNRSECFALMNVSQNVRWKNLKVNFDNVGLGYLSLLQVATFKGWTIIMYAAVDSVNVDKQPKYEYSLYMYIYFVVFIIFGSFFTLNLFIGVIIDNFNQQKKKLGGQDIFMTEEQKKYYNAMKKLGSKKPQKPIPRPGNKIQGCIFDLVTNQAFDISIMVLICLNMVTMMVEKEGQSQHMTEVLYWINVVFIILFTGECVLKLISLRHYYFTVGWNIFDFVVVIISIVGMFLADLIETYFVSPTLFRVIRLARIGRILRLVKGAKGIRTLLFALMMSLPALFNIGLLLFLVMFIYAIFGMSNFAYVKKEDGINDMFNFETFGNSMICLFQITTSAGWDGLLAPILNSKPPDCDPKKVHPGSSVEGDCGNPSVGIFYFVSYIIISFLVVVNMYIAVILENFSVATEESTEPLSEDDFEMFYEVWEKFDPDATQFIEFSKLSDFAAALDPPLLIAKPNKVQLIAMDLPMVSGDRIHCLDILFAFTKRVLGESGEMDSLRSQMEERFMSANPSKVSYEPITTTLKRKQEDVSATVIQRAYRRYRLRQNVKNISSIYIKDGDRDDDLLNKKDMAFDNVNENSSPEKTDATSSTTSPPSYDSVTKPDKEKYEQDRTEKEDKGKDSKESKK

## CC[C@H](C)[C@@H]1NC(=O)[C@@H]2CSSC[C@@H]3NC(=O)[C@H](C(C)C)NC(=O)[C@H](CC(C)C)NC(=O)[C@H](CC(N)=O)NC(=O)[C@@H]4CCCN4C(=O)[C@H](CCCNC(=N)N)NC(=O)[C@H](CSSC[C@H](NC(=O)[C@@H](N)CC(=O)O)C(=O)N[C@@H](CC(C)C)C(=O)NCC(=O)N[C@@H](Cc4ccccc4Cl)C(=O)N[C@@H](CCSC)C(=O)N[C@@H](CCCNC(=N)N)C(=O)N[C@@H](CCCCN)C(=O)N2)NC(=O)[C@H](CSSC[C@@H](C(=O)N[C@@H](CCCCN)C(=O)N[C@@H](Cc2ccc(O)cc2)C(=O)N[C@H](C(=O)N[C@@H](Cc2ccccc2)C(N)=O)C(C)C)NC(=O)[C@H](Cc2c[nH]c4ccccc24)NC(=O)[C@H](CCCCN)NC(=O)[C@H](Cc2c[nH]cn2)NC(=O)[C@H]([C@@H](C)O)NC(=O)[C@H](CCCNC(=N)N)NC(=O)[C@H](CO)NC3=O)NC(=O)[C@H](CCCCN)NC(=O)[C@H](CC(=O)O)NC(=O)[C@H](CC(N)=O)NC(=O)[C@H](CC(=O)O)NC(=O)[C@@H]2CCCN2C1=O [compound 689]
hNav1.7; use-dependent protocol, hNav1.7
  IC50: 0.13 µM
hNav1.5; IonWorks Quattro, use-dependent protocol, hNav1.5, read-out: IWQ Use Nav1.5
  IC50: > 5 µM
hNav1.3; use-dependent protocol, hNav1.3
  IC50: 0.11 µM

## CC[C@H](C)[C@@H]1NC(=O)[C@@H]2CSSC[C@@H]3NC(=O)[C@H](C(C)C)NC(=O)[C@H](CC(C)C)NC(=O)[C@H](CC(N)=O)NC(=O)[C@@H]4CCCN4C(=O)[C@H](CCCNC(=N)N)NC(=O)[C@H](CSSC[C@H](NC(=O)[C@@H](N)CC(=O)O)C(=O)N[C@@H](CC(C)C)C(=O)NCC(=O)N[C@@H](CCSC)C(=O)N[C@@H](CCSC)C(=O)N[C@@H](CCCNC(=N)N)C(=O)N[C@@H](CCCCN)C(=O)N2)NC(=O)[C@H](CSSC[C@@H](C(=O)N[C@@H](CCCCN)C(=O)N[C@@H](Cc2ccc(O)cc2)C(=O)N[C@H](C(=O)N[C@@H](Cc2ccccc2)C(N)=O)C(C)C)NC(=O)[C@H](Cc2c[nH]c4ccccc24)NC(=O)[C@H](CCCCN)NC(=O)[C@H](Cc2cnc[nH]2)NC(=O)[C@H]([C@@H](C)O)NC(=O)[C@H](CCCNC(=N)N)NC(=O)[C@H](CO)NC3=O)NC(=O)[C@H](CCCCN)NC(=O)[C@H](CC(=O)O)NC(=O)[C@H](CC(N)=O)NC(=O)[C@H](CC(=O)O)NC(=O)[C@@H]2CCCN2C1=O [SEQ ID NO: 268] (H-DCLGMMRKCIPDNDKCCRPNLVCSRTHKWCKYVF-NH2; disulfide 2-17, 9-23, 16-30)
hNav1.7; [1]
  IC50: 0.1 µM
hNav1.5; [2]
  IC50: 12.8 µM
hNav1.3; [1]
  IC50: 0.24 µM

## CC[C@H](C)[C@@H]1NC(=O)[C@@H]2CSSC[C@@H]3NC(=O)[C@H](C(C)C)NC(=O)[C@H](CC(C)C)NC(=O)[C@H](CC(N)=O)NC(=O)[C@@H]4CCCN4C(=O)[C@H](CCCNC(=N)N)NC(=O)[C@H](CSSC[C@H](NC(=O)[C@@H](N)CC(=O)O)C(=O)N[C@@H](CC(C)C)C(=O)NCC(=O)N[C@@H](Cc4ccccc4)C(=O)N[C@@H](CCSC)C(=O)N[C@@H](CCCNC(=N)N)C(=O)N[C@@H](CCCCN)C(=O)N2)NC(=O)[C@H](CSSC[C@@H](C(=O)N[C@@H](CCCCN)C(=O)N[C@@H](Cc2ccc(O)cc2)C(=O)N[C@H](C(=O)N[C@@H](Cc2ccccc2)C(N)=O)C(C)C)NC(=O)[C@H](Cc2c[nH]c4ccccc24)NC(=O)[C@H](CCCCN)NC(=O)[C@H](Cc2cnc[nH]2)NC(=O)[C@H]([C@@H](C)O)NC(=O)[C@H](CCCNC(=N)N)NC(=O)[C@H](CO)NC3=O)NC(=O)[C@H](C)NC(=O)[C@H](CC(=O)O)NC(=O)[C@H](CC(N)=O)NC(=O)[C@H](CC(=O)O)NC(=O)[C@@H]2CCCN2C1=O [compound 6] (H-DCLGFMRKCIPDNDACCRPNLVCSRTHKWCKYVF-NH2; disulfide 2-17, 9-23, 16-30)
hNav1.7; Use
  IC50: 0.22 µM
hNav1.5; IonWorks Quattro, Use, read-out: IWQ Use Nav1.5
  IC50: 9.64 µM
hNav1.3; Use
  IC50: 0.19 µM

## CC[C@H](C)[C@@H]1NC(=O)[C@@H]2CSSC[C@@H]3NC(=O)[C@H](C(C)C)NC(=O)[C@H](CC(C)C)NC(=O)[C@H](CC(N)=O)NC(=O)[C@@H]4CCCN4C(=O)[C@H](CCCNC(=N)N)NC(=O)[C@H](CSSC[C@H](NC(=O)[C@@H](N)CC(=O)O)C(=O)N[C@@H](CC(C)C)C(=O)NCC(=O)N[C@@H](Cc4ccccc4)C(=O)N[C@@H](CCSC)C(=O)N[C@@H](CCCNC(=N)N)C(=O)N[C@@H](CCCCN)C(=O)N2)NC(=O)[C@H](CSSC[C@@H](C(=O)N[C@@H](CCCCN)C(=O)N[C@@H](Cc2ccc(O)cc2)C(=O)N[C@H](C(=O)N[C@@H](CCC(=O)O)C(N)=O)C(C)C)NC(=O)[C@H](Cc2c[nH]c4ccccc24)NC(=O)[C@H](CCCCN)NC(=O)[C@H](Cc2cnc[nH]2)NC(=O)[C@H]([C@@H](C)O)NC(=O)[C@H](CCCNC(=N)N)NC(=O)[C@H](CO)NC3=O)NC(=O)[C@H](CCCCN)NC(=O)[C@H](CC(=O)O)NC(=O)[C@H](CC(N)=O)NC(=O)[C@H](CC(=O)O)NC(=O)[C@@H]2CCCN2C1=O [compound 34] (H-DCLGFMRKCIPDNDKCCRPNLVCSRTHKWCKYVE-NH2; disulfide 2-17, 9-23, 16-30)
hNav1.7; use-dependent, […]
  IC50: 17 µM
hNav1.5; IWQ Use Nav1.5 (μM)
  IC50: 16.8 µM
hNav1.3; use-dependent, […]
  IC50: 11.2 µM

## CC[C@H](C)[C@@H]1NC(=O)[C@@H]2CSSC[C@@H]3NC(=O)[C@H](C(C)C)NC(=O)[C@H](CC(C)C)NC(=O)[C@H](CC(N)=O)NC(=O)[C@@H]4CCCN4C(=O)[C@H](CCCNC(=N)N)NC(=O)[C@H](CSSC[C@H](NC(=O)[C@@H](N)CC(=O)O)C(=O)N[C@@H](CC(C)C)C(=O)NCC(=O)N[C@@H](Cc4ccccc4)C(=O)N[C@@H](CCSC)C(=O)N[C@@H](CCCNC(=N)N)C(=O)N[C@@H](CCCCN)C(=O)N2)NC(=O)[C@H](CSSC[C@@H](C(=O)N[C@@H](CCCCN)C(=O)N[C@@H](Cc2ccc(O)cc2)C(=O)N[C@H](C(=O)N[C@@H](Cc2ccccc2)C(N)=O)C(C)C)NC(=O)[C@H](Cc2c[nH]c4ccccc24)NC(=O)[C@H](CCCCN)NC(=O)[C@H](Cc2c[nH]cn2)NC(=O)[C@H](CCSC)NC(=O)[C@H](CCCNC(=N)N)NC(=O)[C@H](CO)NC3=O)NC(=O)[C@H](CCCCN)NC(=O)[C@H](CC(=O)O)NC(=O)[C@H](CC(N)=O)NC(=O)[C@H](CC(=O)O)NC(=O)[C@@H]2CCCN2C1=O [compound 346] (H-DCLGFMRKCIPDNDKCCRPNLVCSRMHKWCKYVF-NH2; disulfide 2-17, 9-23, 16-30)
hNav1.7; Table 22, use, […]
  IC50: 0.04 µM
hNav1.5; Table 22, IonWorks Quattro, use, […], read-out: IWQ Use Nav1.5
  IC50: 4.24 µM
hNav1.3; Table 22, use, […]
  IC50: 0.02 µM

## CC[C@H](C)[C@@H]1NC(=O)[C@@H]2CSSC[C@@H]3NC(=O)[C@H](C(C)C)NC(=O)[C@H](CC(C)C)NC(=O)[C@H](CC(N)=O)NC(=O)[C@@H]4CCCN4C(=O)[C@H](CCCNC(=N)N)NC(=O)[C@H](CSSC[C@H](NC(=O)[C@@H](N)CC(=O)O)C(=O)N[C@@H](CC(C)C)C(=O)NCC(=O)N[C@@H](C)C(=O)N[C@@H](Cc4ccccc4)C(=O)N[C@@H](CCCNC(=N)N)C(=O)N[C@@H](CCCCN)C(=O)N2)NC(=O)[C@H](CSSC[C@@H](C(=O)N[C@@H](CCCCN)C(=O)N[C@@H](Cc2ccc(O)cc2)C(=O)N[C@H](C(=O)N[C@@H](Cc2ccccc2)C(=O)O)C(C)C)NC(=O)[C@H](Cc2c[nH]c4ccccc24)NC(=O)[C@H](CCCNC(=N)N)NC(=O)[C@H](Cc2c[nH]cn2)NC(=O)[C@H]([C@@H](C)O)NC(=O)[C@H](CCCNC(=N)N)NC(=O)[C@H](CO)NC3=O)NC(=O)[C@H](CCCCN)NC(=O)[C@H](CC(=O)O)NC(=O)[C@H](Cc2c[nH]c3ccccc23)NC(=O)[C@H](CC(=O)O)NC(=O)[C@@H]2CCCN2C1=O [compound 852]
hNav1.7; use-dependent block, hNav1.7
  IC50: > 5 µM
hNav1.5; IonWorks Quattro, use-dependent block, hNav1.5, read-out: IWQ Use Nav1.5
  IC50: > 5 µM
hNav1.3; use-dependent block, hNav1.3
  IC50: > 5 µM

## CC[C@H](C)[C@@H]1NC(=O)[C@@H]2CSSC[C@@H]3NC(=O)[C@H](C(C)C)NC(=O)[C@H](CC(C)C)NC(=O)[C@H](CC(N)=O)NC(=O)[C@@H]4CCCN4C(=O)[C@H](CCCNC(=N)N)NC(=O)[C@H](CSSC[C@H](NC(=O)[C@@H](N)CC(=O)O)C(=O)N[C@@H](CC(C)C)C(=O)NCC(=O)N[C@@H](Cc4ccccn4)C(=O)N[C@@H](CCSC)C(=O)N[C@@H](CCCNC(=N)N)C(=O)N[C@@H](CCCCN)C(=O)N2)NC(=O)[C@H](CSSC[C@@H](C(=O)N[C@@H](CCCCN)C(=O)N[C@@H](Cc2ccc(O)cc2)C(=O)N[C@H](C(=O)N[C@@H](Cc2ccccc2)C(N)=O)C(C)C)NC(=O)[C@H](Cc2c[nH]c4ccccc24)NC(=O)[C@H](CCCCN)NC(=O)[C@H](Cc2c[nH]cn2)NC(=O)[C@H]([C@@H](C)O)NC(=O)[C@H](CCCNC(=N)N)NC(=O)[C@H](CO)NC3=O)NC(=O)[C@H](CCCCN)NC(=O)[C@H](CC(=O)O)NC(=O)[C@H](CC(N)=O)NC(=O)[C@H](CC(=O)O)NC(=O)[C@@H]2CCCN2C1=O [SEQ ID NO: 277]
hNav1.7; [1]
  IC50: 2.07 µM
hNav1.5; [2]
  IC50: 9.25 µM
hNav1.3; [1]
  IC50: 4.58 µM
